From ChEMBL document CHEMBL5042547, “Activable Targeted Protein Degradation Platform Based on Light-triggered Singlet Oxygen” (J Med Chem, 2022)
The source made the active and inactive calls. The rule behind the calls is not given here.

Columns and labels:
MCF-10A [1] = experiment: Cytotoxicity against human MCF-10A cells upto 100 uM under dark condition; format: toxicity, cell-based
[2] = target: T1, Estrogen receptor (Homo sapiens) (UniProt P03372); experiment: Induction of degradation of human ERalpha in human MCF7 cells at 1 uM incubated for 1 to 6 hrs followed by irradiated light of 460 nm for 30 mins measured after 3 hrs by immunoblot analysis; format: cell-based; conditions: time 4.5-9.5 hrs
T1 sequence (whole entry): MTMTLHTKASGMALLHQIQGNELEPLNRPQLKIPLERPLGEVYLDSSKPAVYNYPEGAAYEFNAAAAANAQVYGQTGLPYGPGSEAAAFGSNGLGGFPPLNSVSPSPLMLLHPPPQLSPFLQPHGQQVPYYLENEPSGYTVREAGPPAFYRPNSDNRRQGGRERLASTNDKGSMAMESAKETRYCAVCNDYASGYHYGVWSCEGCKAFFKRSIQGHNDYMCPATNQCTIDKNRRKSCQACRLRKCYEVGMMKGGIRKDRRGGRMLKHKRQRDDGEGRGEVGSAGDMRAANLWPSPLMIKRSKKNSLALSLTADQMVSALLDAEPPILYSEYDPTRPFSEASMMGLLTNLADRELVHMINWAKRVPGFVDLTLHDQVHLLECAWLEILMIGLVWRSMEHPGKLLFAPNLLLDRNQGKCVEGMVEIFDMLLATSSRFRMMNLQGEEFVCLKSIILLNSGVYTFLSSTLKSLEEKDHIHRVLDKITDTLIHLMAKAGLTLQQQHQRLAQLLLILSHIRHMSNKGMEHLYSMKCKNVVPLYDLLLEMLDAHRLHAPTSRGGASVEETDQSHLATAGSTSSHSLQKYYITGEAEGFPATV

[3] = target: T1, Estrogen receptor (Homo sapiens); experiment: Induction of degradation of human ERalpha in human MCF7 cells assessed as decrease in expression of cyclin D1 gene at 24 hrs; format: cell-based
MCF7 [4] = experiment: Antiproliferative activity against human MCF7 cells in presence of dithiothreitol irradiated daily; format: functional, cell-based
[5] = target: T1, Estrogen receptor (Homo sapiens); experiment: Induction of human ERalpha degradation-mediated apoptosis in human MCF7 cells assessed as increase in expression level of Bak at 0.01 uM by ELISA analysis; format: cell-based
[6] = target: T1, Estrogen receptor (Homo sapiens); experiment: Induction of degradation of human ERalpha in human MCF7 cells by generation of singlet oxygen at 1 uM in presence of dithiothreitol by fluorescent probe based DCFH-DA assay; format: cell-based
[7] = target: T1, Estrogen receptor (Homo sapiens); experiment: Induction of degradation of human ERalpha in human MCF7 cells at 1 uM incubated for 1 to 12 hrs in dark after 3 hrs by immunoblot analysis; format: cell-based; conditions: time 4-15 hrs
MCF7 [8] = experiment: Antiproliferative activity against human MCF7 cells assessed as cell viability at irradiation for 45 mins measured after 72 hrs; format: functional, cell-based; conditions: MCF7, light or radiation study
Estrogen receptor [9] = target: T2, Estrogen receptor (Homo sapiens, UniProt P03372); experiment: Induction of degradation of human ERalpha in MCF7 cells irradiated with 460 light for 30 mins; format: cell-based
T2 sequence (P03372 whole entry): T1 sequence (whole entry)

[10] = target: T1, Estrogen receptor (Homo sapiens); experiment: Induction of degradation of human ERalpha in MCF7 cells at 1 uM incubated for 6 hrs followed by irradiation for 30 min measured for 24 hrs; format: cell-based; conditions: time 30.5 hrs
MCF7 [11] = experiment: Induction of apoptosis in human MCF7 cells assessed as late apoptotic cells at 0.01 to 1 uM irradiated 30 mins for 3 days by annexin V-FITC/PI double staining method; format: functional, cell-based; conditions: dose 0.01-1 µM
MCF7 [12] = experiment: Induction of cell cycle arrest in human MCF7 cells assessed as decrease of cells at S phase after irradiation by propidium iodide based flow cytometry analysis; format: functional; conditions: time 15-45 min, TDE = time-dependent effect
Estrogen receptor [13] = target: T2, Estrogen receptor; experiment: Induction of degradation of human ERalpha in MCF7 cells irradiated with 460 light for 45 mins; format: cell-based
Estrogen receptor [14] = target: T2, Estrogen receptor; experiment: Binding affinity to human ERalpha by competitive fluorometric receptor binding assay
[15] = target: T1, Estrogen receptor (Homo sapiens); experiment: Induction of human ERalpha degradation-mediated apoptosis in human MCF7 cells assessed as increase in expression level of p53 at 0.01 uM by ELISA analysis; format: cell-based
MCF7 [16] = experiment: Antiproliferative activity against human MCF7 cells assessed as cell viability at irradiation for 15 mins measured after 72 hrs; format: functional, cell-based; conditions: MCF7, light or radiation study
MCF7 [17] = experiment: Induction of cell cycle arrest in human MCF7 cells assessed as accumulation of cells at G1 phase after irradiation by propidium iodide based flow cytometry analysis; format: functional; conditions: time 15-45 min, TDE = time-dependent effect
[18] = target: T1, Estrogen receptor (Homo sapiens); experiment: Induction of human ERalpha degradation-mediated apoptosis in human MCF7 cells assessed as increase in cytochrome c release from mitochondria at 0.01 uM irradiated for 45 mins by ELISA analysis
[19] = target: T1, Estrogen receptor (Homo sapiens); experiment: Induction of degradation of human ERalpha irradiated with 460 +/- 10 nm LED light for 15 mins by gel electrophoresis
[20] = target: T1, Estrogen receptor (Homo sapiens); experiment: Induction of degradation of human ERalpha in human MCF7 cells by generation of singlet oxygen at 1 uM in presence of N-acetyl-L-cysteine by fluorescent probe based DCFH-DA assay; format: cell-based
MCF7 [21] = experiment: Induction of cell cycle arrest in human MCF7 cells assessed as transition of cells from G1 to S phase after irradiation measured after 24 hrs by propidium iodide based flow cytometry analysis; format: functional
[22] = target: T1, Estrogen receptor (Homo sapiens); experiment: Induction of degradation of human ERalpha in human MCF7 cells assessed as decrease in expression of c-MYC gene at 24 hrs; format: cell-based
MCF7 [23] = experiment: Antiproliferative activity against human MCF7 cells assessed as cell viability at irradiation for 30 mins daily for 3 days; format: functional, cell-based; conditions: MCF7, light or radiation study
[24] = target: T1, Estrogen receptor (Homo sapiens); experiment: Induction of human ERalpha degradation-mediated apoptosis in human MCF7 cells assessed as loss of mitochondrial membrane potential at 0.01 uM irradiated for 45 mins by TMRM fluorescence based cytometric analysis; format: cell-based
MCF7 [25] = experiment: Antiproliferative activity against human MCF7 cells in presence of glutathione irradiated daily; format: functional, cell-based
MCF7 [26] = experiment: Antiproliferative activity against human MCF7 cells assessed as cell viability at irradiation for 15 mins daily for 3 days; format: functional, cell-based; conditions: MCF7, light or radiation study
MCF7 [27] = experiment: Antiproliferative activity against human MCF7 cells in presence of N-acetyl-L-cysteine irradiated daily; format: functional, cell-based
[28] = target: T1, Estrogen receptor (Homo sapiens); experiment: Induction of human ERalpha degradation-mediated apoptosis in human MCF7 cells assessed as increase in expression level of Bax at 0.01 uM by ELISA analysis; format: cell-based
[29] = target: T1, Estrogen receptor (Homo sapiens); experiment: Induction of degradation of human ERalpha in MCF7 cells at 0.1 uM incubated for 6 hrs followed by irradiation for 30 min measured after 2 to 8 hrs; format: cell-based; conditions: time 8.5-14.5 hrs, TDE = time-dependent effect
[30] = target: T1, Estrogen receptor (Homo sapiens); experiment: Binding affinity to human ERalpha assessed as change in enthalpy by isothermal titration calorimetry
MCF7 [31] = experiment: Antiproliferative activity against human MCF7 cells under dark condition; format: functional, cell-based
MCF7 [32] = experiment: Induction of cell cycle arrest in human MCF7 cells assessed accumulation of cells at G1 phase after irradiation measured after 16 hrs by propidium iodide based flow cytometry analysis; format: functional
[33] = target: T1, Estrogen receptor (Homo sapiens); experiment: Induction of human ERalpha degradation in human MCF7 cells assessed as increase in response of cell to ABT-263-mediated Bcl-2 inhibition; format: cell-based
MCF7 [34] = experiment: Antiproliferative activity against human MCF7 cells assessed as cell viability at irradiation for 45 mins daily for 3 days; format: functional, cell-based; conditions: MCF7, light or radiation study
[35] = target: T1, Estrogen receptor (Homo sapiens); experiment: Induction of degradation of human ERalpha in MCF7 cells at 0.1 uM incubated for 6 hrs followed by irradiation for 30 min measured after 2 hrs; format: cell-based; conditions: time 8.5 hrs
MCF7 [36] = experiment: Induction of cell cycle arrest in human MCF7 cells assessed as decrease of cells at G2/M phase after irradiation by propidium iodide based flow cytometry analysis; format: functional; conditions: time 15-45 min, TDE = time-dependent effect
[37] = target: T1, Estrogen receptor (Homo sapiens); experiment: Induction of degradation of human ERalpha in MCF7 cells assessed as ERalpha level at 0.1 uM incubated for 6 hrs followed by irradiation for 30 min measured after 16 hrs; format: cell-based; conditions: time 22.5 hrs
[38] = target: T1, Estrogen receptor (Homo sapiens); experiment: Binding affinity to human ERalpha assessed as change in entropy by isothermal titration calorimetry
MCF-10A [39] = experiment: Cytotoxicity against human MCF-10A cells upto 100 uM assessed as cell viability at irradiation for 15 to 45 mins measured after 72 hrs; format: toxicity, cell-based; conditions: time 72.25-72.75 hrs
[40] = Drug uptake in human MCF7 cells assessed as peak mean fluorescence intensity measured after 6 to 12hrs by cytometric analysis; format: ADME, cell-based
MCF7 [41] = experiment: Antiproliferative activity against human MCF7 cells assessed as cell viability at irradiation for 30 mins measured after 72 hrs; format: functional, cell-based; conditions: MCF7, light or radiation study
[42] = target: T1, Estrogen receptor (Homo sapiens); experiment: Induction of degradation of human ERalpha in human MCF7 cells by generation of singlet oxygen at 1 uM in presence of glutathione by fluorescent probe based DCFH-DA assay; format: cell-based
[43] = target: T1, Estrogen receptor (Homo sapiens); experiment: Induction of human ERalpha degradation-mediated apoptosis in human MCF7 cells assessed as increase in expression level of Bcl-2 at 0.01 uM irradiated for 45 min by ELISA analysis; format: cell-based
[44] = target: T1, Estrogen receptor (Homo sapiens); experiment: Induction of degradation of human ERalpha irradiated with 460 +/- 10 nm LED light for 30 to 45 mins by gel electrophoresis; conditions: time 30-45 min
[45] = target: T1, Estrogen receptor (Homo sapiens); experiment: Induction of degradation of human ERalpha by generation of singlet oxygen incubated for 3 hrs followed by irradiated with 460 +/- 10 nm LED light for 15 mins by circular dichroism spectroscopy; conditions: time 195.0 min
[46] = target: T1, Estrogen receptor (Homo sapiens); experiment: Induction of degradation of human ERalpha in MCF7 cells at 0.01 to 0.1 uM irradiated with 460 light for 15 to 60 mins; format: cell-based; conditions: dose 0.01-0.1 µM, time 15-60 min
MCF7 [47] = experiment: Induction of cell cycle arrest in human MCF7 cells assessed as cells at S phase after irradiation measured after 16 hrs by propidium iodide based flow cytometry analysis; format: functional
[48] = target: T1, Estrogen receptor (Homo sapiens); experiment: Induction of degradation of human ERalpha by generation of singlet oxygen incubated for 3 hrs followed by irradiated with 460 +/- 10 nm LED light for 30 mins by circular dichroism spectroscopy; conditions: time 210.0 min
[49] = target: T1, Estrogen receptor (Homo sapiens); experiment: Induction of degradation of human ERalpha in human MCF7 cells at 0.01 to 1 uM incubated for 6 hrs followed by irradiated light of 460 nm for 45 mins measured after 3 hrs by immunoblot analysis; format: cell-based; conditions: dose 0.01-1 µM, time 9.0 hrs
MCF7 [50] = experiment: Induction of cell cycle arrest in human MCF7 cells assessed as accumulation of cells at G1 phase at 1 uM after irradiation for 30 mins by propidium iodide based flow cytometry analysis; format: functional
MCF7 [51] = experiment: Induction of apoptosis in human MCF7 cells at 1 uM after irradiation for 30 mins annexin V-FITC/PI double staining method; format: functional, cell-based

C[C@]12CC[C@@H]3c4ccc(O)cc4CC[C@H]3[C@@H]1CC[C@@]2(O)C#Cc1ccc(-c2ccc(N(c3ccccc3)c3ccccc3)cc2)c2nsnc12
Activity (MCF-10A [1]): Non-Toxic | Activity [2]: Active | Activity [3]: Active | Activity (MCF7 [4]): inactive | Activity [5]: Active | Activity [6]: inactive | Activity [7]: Active | IC50 (MCF7 [8]): 5.9 µM | EC50 (Estrogen receptor [9]): 17 µM | Activity [10]: Active | Activity (MCF7 [11]): Active | Activity (MCF7 [12]): Tde | EC50 (Estrogen receptor [13]): 0.5 µM | Ki (Estrogen receptor [14]): 0.0728 µM | Activity [15]: Active | IC50 (MCF7 [16]): 8.9 µM | Activity (MCF7 [17]): Tde | Activity [18]: Active | Activity [19]: Active | Activity [20]: inactive | Activity (MCF7 [21]): Active | Activity [22]: Active | IC50 (MCF7 [23]): 0.11 µM | Activity [24]: Active | Activity (MCF7 [25]): inactive | IC50 (MCF7 [26]): 3.5 µM | Activity (MCF7 [27]): inactive | Activity [28]: Active | Activity [29]: Tde | deltaH [30]: -4.39 kcal/mol | Activity (MCF7 [31]): inactive | Activity (MCF7 [32]): Active | Activity [33]: Active | IC50 (MCF7 [34]): 0.022 µM | Activity [35]: Active | Activity (MCF7 [36]): Tde | Activity [37]: 90% | deltaS [38]: 52.2 J/mol/K | Activity (MCF-10A [39]): Non-Toxic | Drug uptake [40]: Active | IC50 (MCF7 [41]): 6.1 µM | Activity [42]: inactive | Activity [43]: inactive | Activity [44]: Active | Activity [45]: Active | Activity [46]: Active | Activity (MCF7 [47]): inactive | Activity [48]: Active

Brc1ccc(-c2ccc(N(c3ccccc3)c3ccccc3)cc2)c2nsnc12
Activity [49]: inactive | Activity (MCF7 [50]): inactive | Activity (MCF7 [51]): inactive
